Experimental data from patent US11584769B2, “Diterpene glycosides, compositions and purification methods” (The Coca-Cola Company, priority 2014, dated 2023).

Tests used:
panelists = experiment: Sensory evaluation of 1 and 3 (single sip protocol, taste panel); format: in vivo, human; settings: 400 ppm in water, 4° C.; for Bitter Aftertaste Intensity / Sweet Linter Intensity / Other Intensity / Overall Max Bitterness Intensity / Overall Max Sweetness Intensity / Bitter Intensity (In mouth) / Sweet Intensity (In mouth): mean score; for Bitter Aftertaste Intensity / Sweet Linter Intensity: 1 minute after tasting; for Other Intensity: any aromatic other than sweet and bitter or mouthfeel; for Overall Max Bitterness Intensity / Overall Max Sweetness Intensity: up to 1 minute
Procedure: Samples were prepared as described in Table 1. All samples were served at 4° C.
Samples were evaluated using a single sip protocol as follows: • Samples were served at approximately 4° C. • Panelists were instructed to take 1 sip of the sample, hold in mouth for 5 seconds, expectorate comfortable with this), and rate the given attributes • A 5 minute break was placed between each sample and panelists were instructed to cleanse their palates with at least 1 bite of unsalted cracker and 2 sips of filtered water • Due to limited sample quantities, panelists were given the following amounts to test: • a 3 vs Reb M: 1.5 mL • 1 vs Reb M: 5 mL • Samples were randomized within each session for each panelist • All samples were presented in replicate in each session Samples were evaluated for: • Sweet taste intensity: maximum level of sweetness in mouth during 5 seconds • Bitter taste intensity: maximum level of bitterness in mouth during 5 seconds • Overall maximum sweet intensity: maximum sweet intensity experienced from the time the sip is taken up to 1 minute • Overall maximum bitter intensity: maximum […] intensity experienced from the time the sip is taken up to 1 minute • Other intensity: Intensity of any aromatic other than sweet and bitter (metallic, plastic, licorice, etc.) or mouthfeel/sensation • Sweet linger intensity: sweet intensity 1 minute after tasting the sample • Bitter aftertaste intensity: bitter intensity 1 minute after tasting the sample Data Analysis. A 3-way ANOVA was used to compare the sweeteners for each attribute, for 1 only, and significance was determined at p<0.05. Fishers's LSD was used to determine significant differences between mean scores.

[1] = Solubility observed when preparing NMR samples (solvent screen); format: physicochemical; settings: for Dissolution of the sample in 250 μL of CD3OD: ~4.3 mg (4, CD3OD+TMS) or 3.8 mg (6) in 250 μL
Procedure: Isolation Procedure. Fractions collected during the final pre-concentration step were filtered through a stainless steel sieve and concentrated in vacuo using a Buchi® Rotary Evaporator, Model R-114. The concentrated solution was dried for 48-72 h using the Kinetics Flexi-Dry Personal Freeze Dryer, followed by vacuum oven drying at 37° C. for 24 h to remove residual moisture. MS and MS/MS. MS and MS/MS data were generated with a Waters QTof Micro mass spectrometer equipped with an electrospray ionization source. The sample was analyzed by negative ESI. The sample was diluted to a concentration of 0.1 mg/mL with H2O:MeCN (1:1) and introduced via flow injection for MS data acquisition, tuned for MS/MS and acquired by direct infusion. NMR. […] The ^1H, COSY, HSQC-DEPT and NOESY NMR data were acquired on Bruker Avance 500 MHz instruments with either a 2.5 mm inverse probe or a 5 mm broad band probe. The ^13C and HMBC NMR data were acquired at the Rensselaer Polytechnic Institute using their Bruker Avance 600 MHz instrument with a 5 mm cryo-probe. The ^1H and ^13C NMR spectra were referenced to the TMS resonance at δH 0.00 ppm and CD3OD resonance at 49.0 ppm, respectively. […] The sample was recovered and blown dry under nitrogen or lyophilized between each solvent screen]. Results and Discussion Unless otherwise noted, all solvent ratios are listed as percent by volume (v/v). Primary Purification. Approximately 300 g of Lot #CB-2977-171 was processed using the primary preparative HPLC method described above. […] Fraction 3 (Lot #JAM-D-10-3) contained the target of interest. Secondary Purification. Lot #JAM-D-10-3 (and equivalent lots) was reprocessed with conditions summarized above. […] Tertiary Purification. Fraction Lot #JAM-D-40-2 was reprocessed with conditions summarized above. Fractions with low level m/z 1776 targets were collected as CJP-C-128 (3, 4, 5, 7). These fractions were subsequently pooled to enhance signal strength for additional processing. Quaternary Purification. Fraction Lot #CJP-C-128 (3, 4, 5, 7) (and equivalent lots) were reprocessed with conditions summarized above. Fraction 1, Lot #CJP-C-130(1), was isolated for additional processing. Quinary Purification. Fraction Lot #CJP-C-130(1) (and equivalent lots) were reprocessed with conditions summarized above. Fraction 9, Lot #CJP-C-133(9), was isolated. […] Secondary Purification. Fraction Lot #CJP-C-133(9) was reprocessed with conditions summarized above. Final Batch Preparation. The purified solution was filtered through a stainless steel sieve to remove particulates. The solution was then concentrated by rotary evaporation and lyophilized for about 72 h. The final batch (4.3 mg), was isolated with >99% (AUC, CAD) purity. Mass Spectrometry. […]

[2] = 1 vs Reb M session, 5 mL sip, N=6
[3] = 3 vs Reb M session, 1.5 mL sip, N=3

Solubility in solvent screen ([1]; pyridine-d5+TMS (~4 mg/170 μL), D2O+TSP (~4 mg/170 μL), DMSO-d6+TMS)	Dissolution of the sample in 250 μL of CD3OD [1]	Soluble portion of the sample in CD3OD+TMS ([1]; ~4.3 mg of sample in 250 μL of CD3OD+TMS)	Structure (SMILES)	Bitter Aftertaste Intensity (panelists; [2])	Sweet Linter Intensity (panelists; [2])	Bitter Aftertaste Intensity (panelists; [3])	Sweet Linter Intensity (panelists; [3])	Other Intensity (panelists; [2])	Other Intensity (panelists; [3])	Overall Max Bitterness Intensity (panelists; [2])	Overall Max Sweetness Intensity (panelists; [2])	Overall Max Bitterness Intensity (panelists; [3])	Overall Max Sweetness Intensity (panelists; [3])	Bitter Intensity (In mouth) (panelists; [2])	Sweet Intensity (In mouth) (panelists; [2])	Bitter Intensity (In mouth) (panelists; [3])	Sweet Intensity (In mouth) (panelists; [3])	Overall Max Sweetness compared to Reb M (panelists)	Sweet Intensity in Mouth compared to Reb M (panelists)	Sweet Linger Intensity compared to Reb M (panelists)
			C=C1C[C@@]23CC[C@H]4[C@@](C)(CCC[C@@]4(C)C(=O)O[C@@H]4O[C@H](CO)[C@@H](O)[C@H](O[C@@H]5O[C@H](CO)[C@@H](O)[C@H](O)[C@H]5O)[C@H]4O[C@@H]4O[C@H](CO)[C@@H](O)[C@H](O)[C@H]4O)[C@@H]2CC[C@]1(O[C@@H]1O[C@H](CO)[C@@H](O)[C@H](O[C@@H]2O[C@H](CO)[C@@H](O)[C@H](O)[C@H]2O)[C@H]1O[C@@H]1O[C@H](CO)[C@@H](O)[C@H](O)[C@H]1O)C3 [Reb M, rebaudioside M, reference compound]	0.5	3.6	0.3	2.5	0.8	0.3	0.8	8.4	1.4	6.3	0.7	7.8	0.4	7.4			
			C=C1C[C@@]23CC[C@H]4[C@@](C)(CCC[C@@]4(C)C(=O)OC4OC(CO)C(O)C(OC5OC(CO)C(O)C(O)C5O)C4OC4OC(CO)C(O)C(O)C4O)[C@@H]2CCC1(OC1OC(CO)C(O)C(OC2OC(CO)C(O)C(O)C2O)C1OC1OC(COC2OC(CO)C(O)C(OC4OC(CO)C(O)C(O)C4O)C2OC2OC(CO)C(O)C(O)C2O)C(O)C(O)C1O)C3 (stereo partly shown) [diterpene glycoside 1]	0.8	0.0			1		0.8	1.1			0.7				significantly lower	significantly lower	significantly lower
			C=C1C[C@@]23CC[C@H]4[C@@](C)(CCC[C@@]4(C)C(=O)OC4OC(COC5OC(CO)C(O)C(OC6OC(CO)C(O)C(O)C6O)C5OC5OC(CO)C(O)C(O)C5O)C(O)C(OC5OC(CO)C(O)C(O)C5O)C4OC4OC(CO)C(O)C(O)C4O)[C@@H]2CCC1(OC1OC(CO)C(O)C(OC2OC(CO)C(O)C(O)C2O)C1OC1OC(CO)C(O)C(O)C1O)C3 (stereo partly drawn) [diterpene glycoside 3, (13-[(2-O-β-D-glucopyranosyl-3-O-β-D-glucopyranosyl)-β-D-glucopyranosyl)oxy] ent-kaur-16-en-19-oic acid-[(2-O-β-D-glucopyranosyl-3-O-β-D-glucopyranosyl-6-O-α-D-glucopyranosyl-(2-O-β-D-glucopyranosyl-3-O-β-D-glucopyranosyl)-β-D-glucopyranosyl) ester]]			0.3	0.9		0.5			1.3	5.6			0.3	5.4	slightly lower	slightly lower	significantly less
very poor solubility	did not dissolve readily	~1.5 mg/250 μL	C=C1C[C@@]23CC[C@H]4[C@@](C)(CCC[C@@]4(C)C(=O)OC4OC(CO)C(O)C(OC5OC(CO)C(O)C(O)C5O)C4OC4OC(CO)C(O)C(OC5OC(CO)C(O)C(OC6OC(CO)C(O)C(O)C6O)C5OC5OC(CO)C(O)C(O)C5O)C4O)[C@@H]2CCC1(OC1OC(CO)C(O)C(OC2OC(CO)C(O)C(O)C2O)C1OC1OC(CO)C(O)C(O)C1O)C3 (stereo partly shown) [diterpene glycoside 4]																	
	did not dissolve completely		C=C1C[C@@]23CC[C@H]4[C@@](C)(CCC[C@@]4(C)C(=O)OC4OC(CO)C(O)C(OC5OC(CO)C(O)C(O)C5O)C4OC4OC(COC5OC(CO)C(O)C(OC6OC(CO)C(O)C(O)C6O)C5OC5OC(CO)C(O)C(O)C5O)C(O)C(O)C4O)[C@@H]2CCC1(OC1OC(CO)C(O)C(OC2OC(CO)C(O)C(O)C2O)C1OC1OC(CO)C(O)C(O)C1O)C3 (stereo partly drawn) [diterpene glycoside 6, (13-[(2-O-β-D-glucopyranosyl-3-O-β-D-glucopyranosyl)-β-D-glucopyranosyl)oxy] ent-kaur-16-en-19-oic acid-[(2-O-β-D-glucopyranosyl-(6-O-α-D-glucopyranosyl-(2-O-β-D-glucopyranosyl-3-O-β-D-glucopyranosyl)-3-O-β-D-glucopyranosyl)-β-D-glucopyranosyl) ester]]																	
